Among the data in US10919852B2, “Immunomodulator compounds” (CHEMOCENTRYX, INC., priority 2017, dated 2021) are IC50 values, retold here.

In the test the target is human PD-L1 / Human PD-1 (Homo sapiens (Human), UniProt Q9NZQ7). Description: Enzyme-Linked Immunosorbent Assay (ELISA), PD-1/PD-L1 binding. The settings on record: plate-coated human PD-L1, biotinylated human PD-1. The method, then:
Biological Example: Enzyme-Linked Immunosorbent Assay—ELISA
96 Well plates were coated with […] of human PD-L1 (obtained from R&D) in PBS overnight at 4° C. The wells were then blocked with 2% BSA in PBS (W/V) with 0.05% TWEEN-20 for 1 hour at 37° C. The plates were washed 3 times with PBS/0.05% TWEEN-20 and the compounds were serial diluted (1:5) in dilution medium and added to the ELISA plates. Human PD-1 and biotin 0.3 μg/mL (ACRO Biosystems) were added and incubated for 1 hour at 37° C. then washed 3 times with PBS/0.05% TWEEN-20. A second block was performed with 2% BSA in PBS (W/V)/0.05% TWEEN-20 for 10 min at 37° C. and was washed 3 times with PBS/0.05% TWEEN-20. Streptavidin-HRP was added for 1 hour at 37° C. then washed 3 times with PBS/0.05% TWEEN-20. TMB substrate was added and reacted for 20 min at 37° C. A stop solution (2 N aqueous H2SO4) was added. The absorbance was read at 450 nm using a micro-plate spectrophotometer.
For orientation: In an ELISA, binding on a coated surface is turned into a signal by an enzyme label.

pIC50: −log10 of the molar value.

human PD-L1 / Human PD-1, sequence (Q9NZQ7 19-239): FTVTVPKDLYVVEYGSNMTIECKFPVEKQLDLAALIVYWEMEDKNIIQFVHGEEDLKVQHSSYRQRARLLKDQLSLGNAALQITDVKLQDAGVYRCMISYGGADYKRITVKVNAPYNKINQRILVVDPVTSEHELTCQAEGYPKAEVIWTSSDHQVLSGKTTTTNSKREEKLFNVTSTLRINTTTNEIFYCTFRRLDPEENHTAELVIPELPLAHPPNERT

One may read the pIC50 as −log10 of the IC50, conventionally taken in molar units. The low end stands for a high IC50, the high end for a low IC50. Take `CCOc1cc(O[C@H]2CCc3c(-c4cccc(OCCCN5CC[C@@H](O)C5)c4C)cccc32)c(Cl)cc1CN[C@H](C(=O)O)[C@@H](C)O`: the pIC50 is > 8.30.
Then `CCOc1cc(O[C@H]2CCc3c(-c4cccc(OCCCN5CC[C@@H](O)C5)c4C)cccc32)c(Cl)cc1CNC(C)(CO)C(=O)O` (stereo partly shown), with > 8.30.
Then `Cc1c(OCCCN2CCC[C@@H](O)C2)cccc1-c1cccc2c1CC[C@@H]2Oc1cc(OCc2cncc(C#N)c2)c(CN[C@H](C(=O)O)[C@@H](C)O)cc1Cl`, with > 8.30.
`Cc1c(OCCCN2CCC[C@H](O)C2)cccc1-c1cccc2c1CC[C@@H]2Oc1cc(OCc2cncc(C#N)c2)c(CN[C@H](C(=O)O)[C@@H](C)O)cc1Cl`: the negative logarithm of the IC50 (pIC50) is > 8.30.
Then `Cc1c(OCCCN2CCC(O)CC2)cccc1-c1cccc2c1CC[C@@H]2Oc1cc(OCc2cc(C#N)cc(C#N)c2)c(CN[C@@](C)(CO)C(=O)O)cc1Cl`, with > 8.30; and `CCOc1cc(O[C@H]2CCc3c(-c4cccc(OCCCN5CC(O)C5)c4Cl)cccc32)c(Cl)cc1CN[C@@](C)(CO)C(=O)O`, with > 8.30; and `CC(CO)(NCc1cc(Cl)c(O[C@H]2CCc3c(-c4cccc(OCCCN5CC(O)C5)c4Cl)cccc32)cc1OCc1cccnc1)C(=O)O` (stereo partly shown), with > 8.30.
`CC(CO)(NCc1cc(Cl)c(O[C@H]2CCc3c(-c4cccc(OCCCN5CCOCC5)c4Cl)cccc32)cc1OCc1cncc(C#N)c1)C(=O)O` (stereo partly shown): the negative-log IC50 (pIC50) was > 8.30.
Take `CC(CO)(NCc1cc(Cl)c(O[C@H]2CCc3c(-c4cccc(OCCCN5CC(O)C5)c4Cl)cccc32)cc1OCc1cncc(Cl)c1)C(=O)O` (stereo partly shown): the pIC50 was > 8.30.
`CC(CO)(NCc1cc(Cl)c(O[C@H]2CCc3c(-c4cccc(OCCCN5CC(F)C5)c4Cl)cccc32)cc1OCc1cncc(C#N)c1)C(=O)O` (stereo partly shown): the negative-log IC50 (pIC50) is > 8.30.
To `C[C@@](CO)(NCc1cc(Cl)c(O[C@H]2CCc3c(-c4cccc(OCCCN5CC(O)C5)c4Cl)cc(F)cc32)cc1OCc1cncc(C#N)c1)C(=O)O` belongs > 8.30; to `CC(CO)(NCc1cc(Cl)c(O[C@H]2CCc3c(-c4cccc(OCCCN5CC6(CC(O)C6)C5)c4Cl)cccc32)cc1OCc1cncc(C#N)c1)C(=O)O` (stereo partly shown), > 8.30; to `CC(CO)(NCc1cc(Cl)c(O[C@H]2CCc3c(-c4cccc(OCCCN5CC6(CC(F)C6)C5)c4Cl)cccc32)cc1OCc1cncc(C#N)c1)C(=O)O` (stereo partly shown), > 8.30.
The molecule `N#Cc1cncc(COc2cc(O[C@H]3CCc4c(-c5cccc(OCCCN6CC(O)C6)c5Cl)cccc43)c(Cl)cc2CN2CCC3(C2)NC(=O)NC3=O)c1` (stereo partly shown) had a pIC50 of 6.30 to 8.30.
As for `N#Cc1cncc(COc2cc(O[C@H]3CCc4c(-c5cccc(OCCCN6CC(O)C6)c5Cl)cccc43)c(Cl)cc2CN[C@@H]2CCCC[C@@H]2O)c1`, the negative logarithm of the IC50 (pIC50) was > 8.30.
On to `N#Cc1cncc(COc2cc(O[C@H]3CCc4c(-c5cccc(OCCCN6CCC(F)CC6)c5Cl)cccc43)c(Cl)cc2CNC[C@@H]2CCC(=O)N2)c1`, for which the pIC50 is > 8.30.
Then `C[C@@H](O)[C@H](NCc1cc(Cl)c(O[C@H]2CCc3c(-c4cccc(OCCCN5CC(O)C5)c4Cl)cccc32)cc1OCc1cncc(C#N)c1)C(=O)NS(C)(=O)=O`, with > 8.30; and `N#Cc1cncc(COc2cc(O[C@H]3CCc4c(-c5cccc(OCCCN6CC(O)C6)c5Cl)cccc43)c(Cl)cc2CN2CC(O)C2)c1`, with > 8.30.
Take `N#Cc1cncc(COc2cc(O[C@H]3CCc4c(-c5cccc(OCCCN6CC(O)C6)c5Cl)cccc43)c(Cl)cc2CN2CCC(O)CC2)c1`: the pIC50 is > 8.30.
As for `C[C@@H](O)[C@H](NCc1cc(Cl)c(O[C@H]2CCc3c(-c4cccc(OCCCN5CC(O)C5)c4Cl)cccc32)cc1OCc1cncc(C#N)c1)C(N)=O`, the negative logarithm of the IC50 (pIC50) is > 8.30.
For the molecule `Cc1c(OCCCN2CCC(F)CC2)cccc1-c1cccc2c1CC[C@@H]2Oc1cc(OCc2cncc(C#N)c2)c(CNC[C@@H]2CCC(=O)N2)cc1Cl`, the pIC50 is > 8.30.
`N#Cc1cncc(COc2cc(O[C@H]3CCc4c(-c5cccc(OCCCN6CC(O)C6)c5Cl)cccc43)c(Cl)cc2CN2CC[C@@H](O)C2)c1`: the negative-log IC50 (pIC50) was > 8.30.
For the molecule `N#Cc1cncc(COc2cc(O[C@H]3CCc4c(-c5cccc(OCCCN6CC(O)C6)c5Cl)cccc43)c(Cl)cc2CNC[C@@H]2CCC(=O)N2)c1`, the negative logarithm of the IC50 (pIC50) is > 8.30.
On to `N#Cc1cncc(COc2cc(O[C@H]3CCc4c(-c5cccc(OCCCN6CC(O)C6)c5Cl)cccc43)c(Cl)cc2CN2CC3(CC(O)C3)C2)c1`, for which the pIC50 was > 8.30.
Regarding `CC(C)(O)CNCc1cc(Cl)c(O[C@H]2CCc3c(-c4cccc(OCCCN5CC(O)C5)c4Cl)cccc32)cc1OCc1cncc(C#N)c1`, the negative-log IC50 (pIC50) was > 8.30.
Then `C[C@@H](O)[C@H](NCc1cc(Cl)c(O[C@H]2CCc3c(-c4cccc(OCCCN5CC(O)C5)c4Cl)cccc32)cc1OCc1cncc(C#N)c1)C(=O)O`, with > 8.30.
`N#Cc1cncc(COc2cc(O[C@H]3CCc4c(-c5cccc(OCCCN6CC(O)C6)c5Cl)cccc43)c(Cl)cc2CNCC(=O)O)c1`: the pIC50 is > 8.30.
To `CCCC(CO)(NCc1cc(Cl)c(O[C@H]2CCc3c(-c4cccc(OCCCN5CC(O)C5)c4Cl)cccc32)cc1OCc1cncc(C#N)c1)C(=O)O` (stereo partly shown) belongs > 8.30.
On to `COc1cc(O[C@H]2CCc3c(-c4cccc(OCCCN5CC(O)C5)c4Cl)cccc32)cc(OC)c1CN[C@@](C)(CO)C(=O)O`, for which the pIC50 is 6.30 to 8.30.
To `C[C@@](CO)(NCc1cc(Cl)c(O[C@H]2CCc3c(-c4cccc(OCCCN5CC(O)C5)c4Cl)cccc32)cc1-c1cncc(C#N)c1)C(=O)O` belongs > 8.30; to `Cc1c(OCCCN2CCC(F)CC2)cccc1-c1cccc2c1CC[C@@H]2Oc1cc(OCc2cncc(C#N)c2)c(CNC[C@H]2CCC(=O)N2)cc1Cl`, > 8.30; to `N#Cc1cncc(COc2cc(O[C@H]3CCc4c(-c5cccc(OCCCN6CCC(O)CC6)c5Cl)cccc43)c(Cl)cc2CNC[C@@H]2CCC(=O)N2)c1`, > 8.30.
Then `N#Cc1cncc(COc2cc(O[C@H]3CCc4c(-c5cccc(OCCCN6CCC(O)CC6)c5Cl)cccc43)c(Cl)cc2CNC[C@H]2CCC(=O)N2)c1`, with > 8.30; and `N#Cc1cncc(COc2cc(O[C@H]3CCc4c(-c5cccc(OCCCN6CCC(F)CC6)c5Cl)cccc43)c(Cl)cc2CNC[C@H]2CCC(=O)N2)c1`, with > 8.30.
Turning to `N#Cc1cncc(COc2cc(O[C@H]3CCc4c(-c5cccc(OCCCN6CCC(F)CC6)c5Cl)cccc43)c(Cl)cc2CN2CC[C@@H](O)C2)c1`, the pIC50 was > 8.30.
Turning to `N#Cc1cncc(COc2cc(O[C@H]3CCc4c(-c5cccc(OCCCN6CCC(F)CC6)c5Cl)cccc43)c(Cl)cc2CN[C@H]2CCOC[C@@H]2O)c1`, the negative-log IC50 (pIC50) was > 8.30.
Consider `N#Cc1cncc(COc2cc(O[C@H]3CCc4c(-c5cccc(OCCCN6CCC(F)CC6)c5Cl)cccc43)c(Cl)cc2CN2CC[C@@H](F)C2)c1`, for which the negative-log IC50 (pIC50) was > 8.30.
Then `CC1(O)CN(Cc2cc(Cl)c(O[C@H]3CCc4c(-c5cccc(OCCCN6CCC(F)CC6)c5Cl)cccc43)cc2OCc2cncc(C#N)c2)C1`, with > 8.30; and `CC1(O)CCN(Cc2cc(Cl)c(O[C@H]3CCc4c(-c5cccc(OCCCN6CCC(F)CC6)c5Cl)cccc43)cc2OCc2cncc(C#N)c2)CC1`, with > 8.30.
As to `N#Cc1cncc(COc2cc(O[C@H]3CCc4c(-c5cccc(OCCCN6CC7(CC(O)C7)C6)c5Cl)cccc43)c(Cl)cc2CN[C@@H]2CCCC[C@@H]2O)c1`, the pIC50 was > 8.30.
To `N#Cc1cncc(COc2cc(O[C@H]3CCc4c(-c5cccc(OCCCN6CC(F)(F)C6)c5Cl)cccc43)c(Cl)cc2CNC[C@@H]2CCC(=O)N2)c1` belongs 6.30 to 8.30; to `Cc1c(OCCCN2CCC(F)CC2)cccc1-c1cccc2c1CC[C@@H]2Oc1cc(OCc2cc(C#N)cc(C#N)c2)c(CNC[C@H]2CCC(=O)N2)cc1Cl`, 6.30 to 8.30.
`N#Cc1cncc(COc2cc(O[C@H]3CCc4c(-c5cccc(OCCCN6CCCCC6)c5Cl)cccc43)c(Cl)cc2CNC[C@H]2CCC(=O)N2)c1`: the pIC50 was > 8.30.
To `N#Cc1cncc(COc2cc(O[C@H]3CCc4c(-c5cccc(OCCCN6CCCCC6)c5Cl)cccc43)c(Cl)cc2CNC[C@@H]2CCC(=O)N2)c1` belongs > 8.30; to `N#Cc1cncc(COc2cc(O[C@H]3CCc4c(-c5cccc(OCCCN6CCCCC6)c5Cl)cccc43)c(Cl)cc2CN[C@@H]2CCCC[C@@H]2O)c1`, > 8.30; to `C[C@@H](O)[C@H](NCc1cc(Cl)c(O[C@H]2CCc3c(-c4cccc(OCCCN5CCCCC5)c4Cl)cccc32)cc1OCc1cncc(C#N)c1)C(=O)NS(C)(=O)=O`, > 8.30.
Then `N#Cc1cncc(COc2cc(O[C@H]3CCc4c(-c5cccc(OCCCN6CC(F)(F)C6)c5Cl)cccc43)c(Cl)cc2CNC[C@H]2CCC(=O)N2)c1`, with 6.30 to 8.30; and `N#Cc1cncc(COc2cc(O[C@H]3CCc4c(-c5cccc(OCCCN6CCC(F)CC6)c5Cl)cccc43)c(Cl)cc2CN[C@@H]2CCC[C@@H]2O)c1`, with > 8.30; and `N#Cc1cncc(COc2cc(O[C@H]3CCc4c(-c5cccc(OCCCN6CCC(F)CC6)c5Cl)cccc43)c(Cl)cc2CN[C@@H]2CCC[C@H]2O)c1`, with > 8.30.
With `C[C@@](CO)(NCc1cc(Cl)c(O[C@H]2CCc3c(-c4cccc(OCCCN)c4Cl)cccc32)cc1OCc1cncc(C#N)c1)C(=O)O`, the negative-log IC50 (pIC50) is > 8.30.
As to `CC1(C)CC(O)CCN1CCCOc1cccc(-c2cccc3c2CC[C@@H]3Oc2cc(OCc3cncc(C#N)c3)c(CN[C@@H]3CCCC[C@@H]3O)cc2Cl)c1Cl` (stereo partly shown), the pIC50 is > 8.30.
Take `CC1(F)CCN(CCCOc2cccc(-c3cccc4c3CC[C@@H]4Oc3cc(OCc4cncc(C#N)c4)c(CN[C@@H]4CCCC[C@@H]4O)cc3Cl)c2Cl)CC1`: the pIC50 was > 8.30.
